The values that follow come from patent US20170197980A1, “N-(4-PHENYL)-N'-(3-FLUOROPHENYL)UREA DOCUSATE” (AbbVie Inc., priority 2014, published 2017).

In general, solubility refers to the concentration that dissolves in the medium under given conditions.

Common to all, as to assay type: physicochemical
The nature of series [1]: Solubility in organic solvents, potency measurement by HPLC. Here is the method:
In a glass vial, N-(4-{4-amino-7-[1-(2-hydroxyethyl)-1H-pyrazol-4-yl]thieno[3,2-c]pyridin-3-yl}phenyl)-N′-(3-fluorophenyl)urea free base (501 mg, 1.02 mmol) was slurried in 20 ml of THF using a magnetic stir bar. The free base was converted to the HCl salt in-situ by addition of 5.0 ml of aqueous 0.207 N HCl. Docusate sodium (465 mg, 1.05 mmol) was added and the mixture was stirred until all solids dissolved. Solvent was removed by rotoevaporation. Acetone, 15 ml, was added to the flask with mixing until most of the solid has dissolved, resulting in a suspension of NaCl particles. The sample was then filtered through a 0.45 µm syringe filter (to remove the NaCl particles) followed by rotoevaporation to remove acetone. The sample was placed on a vacuum line to dry for 2 hours. The above step was repeated with 15 ml acetone and filtration through a 0.22 µm filter. After removing the acetone by rotoevaporation, the sample was dried under vacuum overnight. The sample appears to be amorphous to the naked eye. […] Solubilities were determined by potency measurements using high-performance liquid chromatography (HPLC).

A short description of series [2]: Solubility in SEDDs (lipid) vehicle, saturated solution. As for the experimental part:
A saturated solution of the docusate salt in the SEDDs vehicle and a saturated solution of the tosylate salt in the SEDDs vehicle were prepared. The SEDDs vehicle was 15 wt % Capmul® MCM C10, 50 wt % Polysorbate 80, and 35 wt % Miglyol 812.

Series [3] in a line: Stability, droplet size (DLS) and appearance of the SEDD emulsion after 1:9 dilution in water. As for the experimental part: The docusate:SEDD concentrate was diluted in water at a 1:9 ratio, resulting in an emulsion at a concentration of 2.3 mg/mL. […] The emulsion was stable at native pH 4 for more than 2 weeks at room temperature, with no significant change in particle size analysis by dynamic light scattering (DLS).
The tosylate:SEDD concentrate was diluted in water at a 1:9 ratio, resulting in an emulsion at a concentration of 2.3 mg/mL.

Series [4] can be described thus: Microcentrifuge dissolution in simulated gastric and intestinal media (GB/IB transfer test). The settings on record: for dissolution in simulated gastric media: 0.01N HCl, pH 2.0, 1000 μg/mL; for dissolution in simulated intestinal media (IB): 0.5 wt % SIF powder in PBS, pH 6.5, 500 μg/mL. Here is the method:
Microcentrifuge dissolution of salts in simulated gastric and intestinal media
Dissolution of tosylate and docusate salts in simulated GB/IB transfer dissolution test was measured and compared to free base. The simulated gastric media was 0.01N HCl, pH 2.0 (concentration 1000 μg/mL), and the simulated intestinal media was 0.5 wt % SIF powder in PBS, pH 6.5 (500 μg/mL).
Once the pH is raised to intestinal pH, the drug converts back to a free base that precipitates.

The nature of a further series: Solubility in water. The conditions noted are these: pH 7.4.
[5] abbreviates: 15 wt % Capmul MCM C10, 50 wt % Polysorbate 80, 35 wt % Miglyol 812.

≈ marks a conversion by molar mass, not a printed value. Entries after “also recorded” stand apart in the source; their conditions may differ.

In the case of `CCCCC(CC)COC(=O)CC(C(=O)OCC(CC)CCCC)S(=O)(=O)O.Nc1ncc(-c2cnn(CCO)c2)c2scc(-c3ccc(NC(=O)Nc4cccc(F)c4)cc3)c12` [docusate salt, N-(4-{4-amino-7-[1-(2-hydroxyethyl)-1H-pyrazol-4-yl]thieno[3,2-c]pyridin-3-yl}phenyl)-N′-(3-fluorophenyl)urea docusate salt], in series [1] (THF), the “solubility in tetrahydrofuran (THF)” value is given as “greater than 45 mg/ml”. Also, in series [1] (acetone), the solubility in acetone is greater than 47 mg/mL. Also, in series [1] (dichloromethane), the solubility in dichloromethane is greater than 75 mg/mL. Moreover, the solubility in ethanol in series [1] (ethanol) is greater than 51 mg/mL. For the same compound, the “solubility in the SEDD vehicle” value in series [2] (setting [5]) stood at 23 mg/mL. Moreover, in series [2] (lipid vehicles), the “solubility in lipid vehicles (in words)” value was “high solubility in lipid vehicles”. Further, the “stability in emulsions (in words)” value in series [3] is reported as “remain stable in emulsions over a period of several days”. In series [4], the “dissolution in simulated gastric media” value is recorded as “does not dissolve in acidic pH” and the “dissolution in simulated intestinal media (IB)” value (“dissolution … (IB)” below) is on record as “significantly higher solubility profile during the first 90 minutes in IB than either free base or the tosylate salt; also recorded: appreciable solubility in IB solution”.
Turning to `Cc1ccc(S(=O)(=O)O)cc1.Nc1ncc(-c2cnn(CCO)c2)c2scc(-c3ccc(NC(=O)Nc4cccc(F)c4)cc3)c12` [tosylate salt, N-(4-{4-amino-7-[1-(2-hydroxyethyl)-1H-pyrazol-4-yl]thieno[3,2-c]pyridin-3-yl}phenyl)-N′-(3-fluorophenyl)urea tosylate salt], in series [1] (organic solvent or mixture), the solubility was greater than 25 mg/mL. Also, the solubility in series [2] (SEDDs vehicle, oil or lipid, thermodynamic from solid, 15 wt % Capmul MCM C10, 50 wt % Polysorbate 80, 35 wt % Miglyol 812, read-out: solubility in the SEDD vehicle) turned out to be 22 mg/mL. For the same compound, in series [4], the “dissolution in simulated gastric media” value was “significant solubility at the lower pH” and the “dissolution … (IB)” value is “precipitates”.
`Nc1ncc(-c2cnn(CCO)c2)c2scc(-c3ccc(NC(=O)Nc4cccc(F)c4)cc3)c12` [free base, N-(4-{4-amino-7-[1-(2-hydroxyethyl)-1H-pyrazol-4-yl]thieno[3,2-c]pyridin-3-yl}phenyl)-N′-(3-fluorophenyl)urea free base]: in “Solubility in water”, the solubility in water entry is listed as “less than 30 ng/ml”. For the same compound, the “solubility in the SEDD vehicle” value in series [2] (setting [5]) is recorded as 2.7 mg/mL (≈ 5.53 mM). Also, in series [4], the “dissolution in simulated gastric media” value is listed as “significant solubility at the lower pH” and the “dissolution … (IB)” value is “precipitates”.
